Measured values taken from PubChem BioAssay (NCI).
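In this assay, cells in 96-well plates receive the compound at five concentrations for 48 hours. Endpoints are linearly interpolated between the surrounding concentrations. Here, GI50 denotes the concentration required for 50% inhibition of growth. TGI is the concentration that stops growth completely.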

Tests used:
Test in all cases: inhibition of tumour cell growth, NCI panel, 48 h
[1] = test system: 786-0 renal
[2] = test system: A498 renal
[3] = test system: A549 NSCLC
[4] = test system: ACHN renal
[5] = test system: BT-549 breast
[6] = test system: CAKI-1 renal
[7] = test system: CCRF-CEM leukemia
[8] = test system: COLO 205 colon
[9] = test system: DU-145 prostate
[10] = test system: EKVX NSCLC
[11] = test system: HCC-2998 colon
[12] = test system: HCT-116 colon
[13] = test system: HCT-15 colon
[14] = test system: HL-60(TB) leukemia
[15] = test system: HOP-62 NSCLC
[16] = test system: HOP-92 NSCLC
[17] = test system: HS 578T breast
[18] = test system: HT29 colon
[19] = test system: IGROV1 ovarian
[20] = test system: K-562 leukemia
[21] = test system: KM12 colon
[22] = test system: LOX IMVI melanoma
[23] = test system: M14 melanoma
[24] = test system: MALME-3M melanoma
[25] = test system: MCF7 breast
[26] = test system: MDA-MB-231 breast
[27] = test system: MDA-MB-435
[28] = test system: MOLT-4 leukemia
[29] = test system: NCI-H226 lung
[30] = test system: NCI-H23 lung
[31] = test system: NCI-H460 lung
[32] = test system: NCI-H522 lung
[33] = test system: NCI/ADR-RES ovarian
[34] = test system: OVCAR-3 ovarian
[35] = test system: OVCAR-4 ovarian
[36] = test system: OVCAR-5 ovarian
[37] = test system: OVCAR-8 ovarian
[38] = test system: PC-3 prostate
[39] = test system: RPMI-8226 leukemia
[40] = test system: RXF 393 renal
[41] = test system: SF-268 CNS
[42] = test system: SF-295 CNS
[43] = test system: SF-539 CNS
[44] = test system: SK-MEL-2 melanoma
[45] = test system: SK-MEL-28 melanoma
[46] = test system: SK-MEL-5 melanoma
[47] = test system: SK-OV-3 ovarian
[48] = test system: SN12C renal
[49] = test system: SNB-19 CNS
[50] = test system: SNB-75 CNS
[51] = test system: SR leukemia
[52] = test system: SW-620 colon
[53] = test system: T-47D breast
[54] = test system: TK-10 renal
[55] = test system: U251 CNS
[56] = test system: UACC-257 melanoma
[57] = test system: UACC-62 melanoma
[58] = test system: UO-31 renal

## CC1(C)[C@@H](OC(N)=O)[C@H]2O[C@H]2[C@]2(C=O)[C@H]3CC[C@]4(C)[C@@H](c5ccc(=O)oc5)[C@@H](Cl)C[C@]4(O)C3=CC[C@@H]12
[1]
  GI50: 4.89 nM
  TGI: 10.5 nM
[2]
  GI50: 6.83 nM
  TGI: 22.2 nM
[3]
  GI50: 4.42 nM
  TGI: 8.58 nM
[4]
  GI50: 4.03 nM
  TGI: 8.92 nM
[5]
  GI50: 5.01 nM
  TGI: 10.3 nM
[6]
  GI50: 4.48 nM
  TGI: 8.59 nM
[7]
  GI50: 5.71 nM
  TGI: 14.7 nM
[8]
  GI50: 7.31 nM
  TGI: 19.9 nM
[9]
  GI50: 4.37 nM
  TGI: 7.98 nM
[10]
  GI50: 4.72 nM
  TGI: 10.2 nM
[11]
  GI50: 8.15 nM
  TGI: 34.2 nM
[12]
  GI50: 4.35 nM
  TGI: 8.53 nM
[13]
  GI50: 5.6 nM
  TGI: 12.8 nM
[14]
  GI50: 5.57 nM
  TGI: 13.1 nM
[15]
  GI50: 3.99 nM
  TGI: 7.85 nM
[16]
  GI50: 6.16 nM
  TGI: 19.8 nM
[17]
  GI50: 4.09 nM
  TGI: 19.2 nM
[18]
  GI50: 5.81 nM
  TGI: 12.5 nM
[19]
  GI50: 8.36 nM
  TGI: 36.2 nM
[20]
  GI50: 6.98 nM
  TGI: 25.3 nM
[21]
  GI50: 8.06 nM
  TGI: 25.3 nM
[22]
  GI50: 4.51 nM
  TGI: 8.86 nM
[23]
  GI50: 6.39 nM
  TGI: 17.7 nM
[24]
  GI50: 6.29 nM
  TGI: 13.8 nM
[25]
  GI50: 7.24 nM
  TGI: 28.1 nM
[26]
  GI50: 10.9 nM
  TGI: 55.6 nM
[27]
  GI50: 7.04 nM
  TGI: 18.7 nM
[28]
  GI50: 3.65 nM
  TGI: 11.2 nM
[29]
  GI50: 4.32 nM
  TGI: 8.11 nM
[30]
  GI50: 3.79 nM
  TGI: 11.1 nM
[31]
  GI50: 3.47 nM
  TGI: 7.7 nM
[32]
  GI50: 3.5 nM
  TGI: 10.4 nM
[33]
  GI50: 5.89 nM
  TGI: 14.2 nM
[34]
  GI50: 4.87 nM
  TGI: 9.81 nM
[35]
  GI50: 5.55 nM
  TGI: 13.9 nM
[36]
  GI50: 6.06 nM
  TGI: 15.1 nM
[37]
  GI50: 6.03 nM
  TGI: 15 nM
[38]
  GI50: 6.67 nM
  TGI: 18.8 nM
[39]
  GI50: 7.95 nM
  TGI: 34 nM
[40]
  GI50: 7.17 nM
  TGI: 237 nM
[41]
  GI50: 3.7 nM
  TGI: 7.49 nM
[42]
  GI50: 5.22 nM
  TGI: 11.8 nM
[43]
  GI50: 4.39 nM
  TGI: 8.33 nM
[44]
  GI50: 20 nM
  TGI: 69.2 nM
[45]
  GI50: 7.94 nM
  TGI: 26.8 nM
[46]
  GI50: 4.59 nM
  TGI: 8.87 nM
[47]
  GI50: 7 nM
  TGI: 20.3 nM
[48]
  GI50: 5.6 nM
  TGI: 17.3 nM
[49]
  GI50: 7.96 nM
  TGI: 21.9 nM
[50]
  GI50: 4.49 nM
  TGI: 9.72 nM
[51]
  GI50: 6.17 nM
  TGI: 18.5 nM
[52]
  GI50: 5.29 nM
  TGI: 11.5 nM
[53]
  GI50: 6.56 nM
  TGI: 18.1 nM
[54]
  GI50: 5.51 nM
  TGI: 12.3 nM
[55]
  GI50: 4.84 nM
  TGI: 9.52 nM
[56]
  GI50: 5.9 nM
  TGI: 16.4 nM
[57]
  GI50: 6.14 nM
  TGI: 17.2 nM
[58]
  GI50: 5.72 nM
  TGI: 16.3 nM
